According to paper PMC10344656, “Plasma pharmacokinetics of tigolaner, emodepside, and praziquantel following topical administration of a combination product (Felpreva®) and of intravenous administration of the individual active ingredients in cats” (Current Research in Parasitology & Vector-borne Diseases, 2023):
Where two headings read alike, the source gives them in different places.

Tests used:
[1] = for AUClast/D (Geo CV%) / Cmax/D (Geo CV%): single topical Felpreva 1x, dose-normalised, geometric mean (geometric CV%)
Protocol: (§7) Altogether three studies were conducted. Cats were treated with Felpreva® (containing emodepside praziquantel and tigolaner) at the recommended dose (14.5 ​mg/kg tigolaner, 3 ​mg/kg emodepside and 12 ​mg/kg praziquantel) or at 2.5× and 5× the recommended dose. For intravenous (i.v.) injection (Study 1) tigolaner, emodepside and praziquantel were formulated in tetraglycol as 8.9%, 1.85% and 7.4% solutions, respectively.
(§8) All cats were healthy and acclimatized for a minimum of 7 days. In studies 1 and 2, cats were individually housed for 8 ​h or 10–12 days following i.v. or topical administration, respectively, to avoid potential cross-contamination between animals. After this period, cats were group-housed by treatment group and sex. In Study 3, cats were socially housed in groups of 3 (same sex/same dose group) in one or more connected similar cages. The exception was when cats were separated for designated study procedures/activities associated with dosing or urine and faeces collection.
(§9) In Study 1 where i.v. administration was performed, 6 animals per treatment group were treated with a slow manual i.v. bolus using a catheter placed in the Vv. saphena medialis or Vv. saphena lateralis, and suitable 1-ml single-use syringes. Catheters were placed immediately prior to administration and removed immediately afterwards. Tigolaner (in tetraglycol, C5H9O(OC2H4)nOH, CAS no. 31692-85-0) was administered at 1.5 ​mg/kg (volume: 70–80 ​μl), emodepside (in tetraglycol) was administered at 0.3 ​mg/kg (volume 40–70 ​μl) and praziquantel (in tetraglycol) was administered at 0.2 ​mg/kg (volume: 40–60 ​μl). Low dose rates were administered intravenously to ensure tolerance of an i.v. bolus. Where treatment was administered topically, a spot-on application was manually applied at the base of the head while the hair was divided with 2 fingers. In all studies, topical doses were calculated using individual BWs and the nominal content of the three AIs. The AIs were administered based on the licensed therapeutic dose of 14.5, 3 and 12 ​mg/kg BW for tigolaner, emodepside and praziquantel, respectively. Cats were restrained for approximately a minute following administration to aid spread of the applied formulation and to prevent any possible run-off. […] Cats were closely observed for 1 ​h after dosing and at least once daily thereafter.
(§10) Blood samples of ∼0.5 ​ml (Studies 1 and 2) and 1.0 ​ml (Study 3) were collected into EDTA K2E tubes from the Vv. cephalica antebrachii or another suitable vein. Plasma was harvested following centrifugation (10 ​°C, 3220× g for 10 ​min) and subsequently stored frozen at −18 ​°C.
(§11) Analysis of all samples was performed after finalisation of the biological part of the study. The plasma samples were deproteinised by mixing 100 ​μl of plasma with 900 ​μl of a precipitation mixture of 0.040 ​g ammonium acetate in 100 ​ml water plus 0.1 ​ml formic acid and 600 ​ml acetonitrile containing the internal standards praziquantel-cyclohexyl-d11and [^13C2H6] tigolaner and subsequent centrifugation. Analysis of the AIs tigolaner, emodepside, and praziquantel was conducted by using High Performance Liquid Chromatography with an Agilent Zorbax Eclipse Plus C18 Rapid Resolution, 2.1 ​× ​50 ​mm, 1.8 ​μm column, water/formic acid (1000/0.120, v/v) ​+ ​10 ​mMol/l ammonium formate and methanol/formic acid (1000/0.120, v/v) ​+ ​10 ​mMol/l ammonium formate as mobile phase (0–0.5 ​min at 90/10 v/v, gradient to 0/100 v/v at 3–3.5 ​min and gradient to 90/10 v/v at 4–5 ​min) at 60 ​°C with a flow of 0.6 ​ml/min. Detection was performed by Tandem Mass Spectrometry (HPLC-MS/MS) using a Sciex API 5500 mass spectrometer in the positive ionisation mode.

[2] = Excretion in urine and faeces after topical Felpreva (Study 3); settings: for route of clearance: in vivo
Protocol: Urine and faeces were collected from cats in Study 3 for analysis of excretion of the AIs. Sampling days per cat were study days 1, 2, 7, 14, 21 and 28. Cats were kept in stainless steel cages with a litter box for the collection of total urine and faeces. The total volume of urine was determined, thereafter 2 aliquots (A + B) of ∼5 ml urine were taken, collected in clear tubes and stored in a freezer set to maintain −18 °C. Faecal samples were weighed and stored in a freezer set to maintain −18 °C.
Urine samples were prepared for analysis by mixing 100 μl urine with 900 μl solvent mixture (as described above), containing labelled tigolaner and praziquantel as internal standards, and then centrifuged. […] The lower limit of quantitation was 1 μg/l.
Faecal samples were extracted by mixing 1 or 5 g faeces with 15 or 40 ml acetonitrile containing the internal standards. The mixture was ultrasonicated and shaken by means of an overhead shaker and then centrifuged. The supernatant was transferred into a flask and the residue extracted again with 5 or 30 ml extraction solvent, shaken, and centrifuged. The extracts were combined and filled up to 20 or 100 ml with extraction solvent containing the internal standards, then filtered. […] The limit of quantitation was 10 μg/kg for each analyte.

in vivo [3] = settings: topical or ocular
Protocol: as §7, §8, §9, §10, §11

[4] = Plasma pharmacokinetics after single topical Felpreva at 2.5x and 5x dose multiples (Study 2); settings: for AUC(0-inf): AUCinf; for AUC(0-inf) / half-life / Tmax / AUCinf / T1/2: n = 8, geometric mean; for Cmax: n = 8, plasma, geometric mean; for half-life: T1/2, cats; for AUClast/D (Geo CV%) / Cmax/D (Geo CV%): dose-normalised, geometric mean (geometric CV%)
Protocol: (§1) Altogether three studies were conducted.
(§2) Each AI and treatment were evaluated separately.
(§3) All parameters were derived from individual animal data sets.
(§4) Relative data set weight was always set to 1.

in vivo [5] = settings: for T1/2 (plasma half-life): Study 1, single i.v. bolus in tetraglycol, 0.2 mg/kg praziquantel (actual 1.62, 0.21, 0.21 mg/kg), n = 6 per group, HPLC-MS/MS, geometric mean (geometric CV%)
Protocol: as §1, §2, §3, §4
The basic plasma PK characteristics of the active AIs tigolaner, emodepside and praziquantel were profiled after i.v. dosing based on at least the following parameters: Clearance (Cl), V, extrapolated concentration at time of dosing (C0), area under the curve until the last concentration above LoQ (AUClast), AUCinf, dose normalized AUClast and AUCinf (AUClast/D, AUCinf/D), mean residence time (MRT), and half-life. The statistical group mean estimates and suitable statistical parameters describing the distribution (scattering) were provided.

[6] = in vivo; cited from earlier work
Description: (§5) Felpreva® combines the established Profender® AIs, emodepside and praziquantel with tigolaner.

[7] = set-up: method as in Jacquot et al., 2021; settings: cats, Nexgard Combo spot-on, ref Jacquot et al., 2021; cited from earlier work
Description: as §5

fleas = settings: cats, topical, ref EMA, 2022; Mencke et al., 2023; cited from earlier work
Description: (§6) Tigolaner, from the bis-pyrazole class of compounds has potent antiparasitic properties acting against γ-aminobutyric acid- (GABA-) and glutamate-gated chloride channels with significant selectivity for insect neurons over mammalian neurons ([EMA, 2022]). Tigolaner has a high potency against insects and acarids by exposure via their feeding, i.e. fleas and ticks that initiate feeding will be exposed to the AI ([Cvejić et al., 2022a], [b]; [Mencke et al., 2023]). A single tigolaner dose administered topically at the minimum recommended dose of 14.5 mg/kg body weight (BW) on cats provides 13 we ...

fleas and ticks = settings: cats, single topical dose, minimum recommended dose 14.5 mg/kg body weight, ref Cvejić et al., 2022a, b; Mencke et al., 2023; cited from earlier work
Description: as §6

[8] = 2.5x dose relative to 1x dose, topical Felpreva, cats
[9] = 5x dose relative to 1x dose, topical Felpreva, cats
[10] = cats, single topical Felpreva 2.5x
[11] = cats, single topical Felpreva 5x
[12] = topical Felpreva, dose rates from 1x to 2.5x and 5x, cats, Cmax/D and AUClast/D
[13] = Domestic Shorthair, in vivo, iv, 0.2 mg/kg
[14] = cats, 1.5 mg/kg tigolaner, 0.2 mg/kg emodepside
[15] = cats, Study 2, single topical Felpreva 2.5x, 0.37 ml/kg
[16] = cats, Study 2, single topical Felpreva 5x, 0.74 ml/kg
[17] = cats, single i.v. bolus, 1.5 mg/kg tigolaner, 0.2 mg/kg emodepside, 0.2 mg/kg praziquantel, n = 6, geometric mean (geometric CV%)

CC(C)C[C@H]1C(=O)O[C@H](Cc2ccc(N3CCOCC3)cc2)C(=O)N(C)[C@@H](CC(C)C)C(=O)O[C@H](C)C(=O)N(C)[C@@H](CC(C)C)C(=O)O[C@H](Cc2ccc(N3CCOCC3)cc2)C(=O)N(C)[C@@H](CC(C)C)C(=O)O[C@H](C)C(=O)N1C [Emodepside, emodepside]
AUClast/D (Geo CV%) ([1]; cats): 6.79 (38.7) h∗kg∗μg/l/μg | Cmax/D (Geo CV%) ([1]; cats): 0.015 (61.0) kg∗μg/l/μg | route of clearance [2]: mainly cleared via the faeces | Tmax (in vivo [3]; Domestic Shorthair (DSH)): 36 h | AUC(0-inf) (in vivo [3]; Domestic Shorthair): 20600 ng·h/mL | AUC(0-t) (in vivo [3]; Domestic Shorthair): 20500 ng·h/mL | Cmax (in vivo [3]; Domestic Shorthair): 44.3 ng/mL | Tmax (in vivo [3]; Domestic Shorthair): 36.9 h | bioavailability (in vivo [3]; Domestic Shorthair): 90% | half-life (in vivo [3]; Domestic Shorthair): 14.5 days | Ratio AUClast/D [4, 8]: 0.64 | Ratio Cmax/D [4, 8]: 0.60 | Ratio AUClast/D [4, 9]: 0.66 | Ratio Cmax/D [4, 9]: 0.53 | AUC(0-inf) ([4]; European Shorthair (ESH), in vivo, topical or ocular, cats, Study 2, single topical Felpreva 2.5x, 0.37 ml/kg): 36100 ng·h/mL | AUC(0-inf) ([4]; European Shorthair (ESH), in vivo, topical or ocular, cats, Study 2, single topical Felpreva 5x, 0.74 ml/kg): 62500 ng·h/mL | Cmax ([4]; European Shorthair (ESH), in vivo, topical or ocular, Cmax, cats, Study 2, single topical Felpreva 5x, 0.74 ml/kg (72.5 mg/kg tigolaner, 15 mg/kg emodepside, 60 mg/kg praziquantel)): 106 µg/L | half-life ([4]; European Shorthair (ESH), in vivo, topical or ocular, Study 2, single topical Felpreva 2.5x, 0.37 ml/kg): 13.7 days | half-life ([4]; European Shorthair (ESH), in vivo, topical or ocular, Study 2, single topical Felpreva 5x, 0.74 ml/kg): 13.7 days | Tmax ([4]; European Shorthair (ESH), in vivo, topical or ocular, Tmax, cats, Study 2, single topical Felpreva 2.5x, 0.37 ml/kg): 47.8 h | Tmax ([4]; European Shorthair (ESH), in vivo, topical or ocular, Tmax, cats, Study 2, single topical Felpreva 5x, 0.74 ml/kg): 61.9 h | AUClast/D (Geo CV%) [4, 10]: 4.32 (44.2) h∗kg∗μg/l/μg | Cmax/D (Geo CV%) [4, 10]: 0.009 (71.4) kg∗μg/l/μg | AUClast/D (Geo CV%) [4, 11]: 4.5 (36.5) h∗kg∗μg/l/μg | Cmax/D (Geo CV%) [4, 11]: 0.008 (35.7) kg∗μg/l/μg | dose proportionality of plasma PK (rate and extent) [4, 12]: less than proportional increase | AUC(0-inf) (in vivo [5]; [13]): 1600 ng·h/mL | AUC(0-t) (in vivo [5]; [13]): 1500 ng·h/mL | half-life (in vivo [5]; [13]): 8.43 days | Vd (in vivo [5]; in vivo, iv, 0.2 mg/kg): 38.2 L/kg | clearance (in vivo [5]; in vivo, iv, 0.2 mg/kg): 2.18 mL/min/kg

O=C(C1CCCCC1)N1CC(=O)N2CCc3ccccc3C2C1 (stereo not shown) [Praziquantel, praziquantel]
Tmax [6]: 18.7 ± 47 h | maximum serum concentration [6]: 61.3 ± 44.1 µg/L | serum half-life [6]: 4.1 ± 1.5 days | AUClast/D (Geo CV%) ([1]; cats): 0.30 (19.9) h∗kg∗μg/l/μg | Cmax/D (Geo CV%) ([1]; cats): 0.004 (57.2) kg∗μg/l/μg | AUCinf (total plasma exposure) ([1]; in vivo): 3.7 (19.6) mg∗h/l | AUClast ([1]; in vivo): 3.6 (19.7) mg∗h/l | Tmax ([1]; in vivo): 4.8 (107.7) h | absolute bioavailability after topical application ([1]; in vivo): 48% | bioavailability after topical application, first 24 h ([1]; in vivo): 6% | plasma elimination half-life ([1]; in vivo): 10 days | route of clearance [2]: equally cleared via the faeces and via the urine for males | AUClast/D (Geo CV%) [4, 10]: 0.19 (47.7) h∗kg∗μg/l/μg | Cmax/D (Geo CV%) [4, 10]: 0.003 (51.7) kg∗μg/l/μg | AUClast/D (Geo CV%) [4, 11]: 0.25 (22.2) h∗kg∗μg/l/μg | Cmax/D (Geo CV%) [4, 11]: 0.003 (39.8) kg∗μg/l/μg | Ratio Cmax/D ([4]; in vivo): 0.75 | dose proportionality of plasma PK (rate and extent) ([4]; in vivo): less than proportional increase | serum half-life [7]: 4.3 days | T1/2 (plasma half-life) (in vivo [5]; [14]): 1.8 (94.8) h | Cl_pred (systemic clearance) (in vivo [5]; in vivo): 1.861 (32.2) l/h/kg | Vz_pred (volume of distribution) (in vivo [5]; in vivo): 4.95 (142.2) l/kg

Cn1nc(C(F)(F)C(F)(F)F)c(C(F)(F)F)c1-n1cc(-c2ccc(Cl)c(C(=O)NC3(C#N)CC3)c2)cn1 [Tigolaner, tigolaner]
onset of efficacy, fleas already on the cat prior to treatment (fleas): ≤ 12 h | onset of efficacy, new flea infestation, after two months (fleas): ≤ 24 h | onset of efficacy, new flea infestation, for two months (fleas): ≤ 8 h | duration of flea and tick control (fleas and ticks): 13 weeks | absolute bioavailability after topical application ([1]; cats, Study 1, Fabs = AUCinf/D spot-on / AUCinf/D i.v., group geometric means): 57% | AUClast/D (Geo CV%) ([1]; cats): 103.16 (32.9) h∗kg∗μg/l/μg | Cmax/D (Geo CV%) ([1]; cats): 0.092 (37.9) kg∗μg/l/μg | extent of metabolism (conclusion from excretion) ([2]; cats, Study 3, topical administration, 28 days): poorly metabolized | Ratio AUClast/D [4, 8]: 1.05 | Ratio Cmax/D [4, 8]: 0.91 | Ratio AUClast/D [4, 9]: 0.76 | Ratio Cmax/D [4, 9]: 0.58 | Cmax ([4]; cats, Study 2, single topical Felpreva 2.5x, 0.37 ml/kg (36.25 mg/kg tigolaner, 7.5 mg/kg emodepside, 30 mg/kg praziquantel)): 2496.9 µg/L | AUCinf [4, 15]: 3308 mg∗h/l | T1/2 [4, 15]: 23.75 days | Tmax [4, 15]: 440.4 h | Cmax ([4]; cats, Study 2, single topical Felpreva 5x, 0.74 ml/kg (72.5 mg/kg tigolaner, 15 mg/kg emodepside, 60 mg/kg praziquantel)): 3574.2 µg/L | AUCinf [4, 16]: 5393 mg∗h/l | T1/2 [4, 16]: 23.47 days | AUClast/D (Geo CV%) [4, 10]: 108.66 (142.5) h∗kg∗μg/l/μg | Cmax/D (Geo CV%) [4, 10]: 0.084 (137.8) kg∗μg/l/μg | AUClast/D (Geo CV%) [4, 11]: 78.5 (30.7) h∗kg∗μg/l/μg | Cmax/D (Geo CV%) [4, 11]: 0.053 (34.0) kg∗μg/l/μg | dose proportionality of plasma PK (rate and extent) [4, 12]: less than proportional increase | T1/2 (plasma half-life) (in vivo [5]; [14]): 515.4 (54.2) h | AUCinf (in vivo [5]; [17]): 300.1 (29.1) mg∗h/l | AUClast (in vivo [5]; [17]): 298 (29.5) mg∗h/l | Cl_pred (systemic clearance) (in vivo [5]; [17]): 0.005 (31.7) l/h/kg | Vz_pred (volume of distribution) (in vivo [5]; [17]): 4.00 (56.5) l/kg
